Structures can show the parent of a compound that is named as a salt. Where two headings read alike, the source gives them in different places.
Columns and labels:
full-length human LSD1 = full-length human LSD1 (Homo sapiens (Human), UniProt O60341); test: In vitro enzyme inhibition assay LSD-1 (TR-FRET); assay type: biochemical; settings: TR-FRET, 0.1 nM LSD1, 50 nM H3K4me1-biotin peptide, 2 μM FAD, pH7.3; read-out: LSD1 IC50
Description: This assay determines the ability of a test compound to inhibit LSD1 demethylase activity.
The enzymatic assay of LSD1 activity is based on Time Resolved-Fluorescence Resonance Energy Transfer (TR-FRET) detection.
The ability of the compounds disclosed herein to inhibit LSD1 activity was quantified and the respective IC50 value was determined. Table 5 provides the IC50 values of various substituted heterocyclic compounds disclosed herein.

THP-1 (AML) cells = test: LSD1 CD11b cellular assay (flow cytometry); assay type: cell-based; settings: CD11b expression in THP-1 (AML) cells, flow cytometry, 4 days incubation, read-out: Cellular IC50
Procedure, shortened: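 THP-1 AML cells treated with serially diluted compound (0.2% DMSO final) for 4 days at 37 °C, 5% CO2. CD11b expression measured by flow cytometry with DAPI staining; IC50 derived from percent CD11b-positive cells versus inhibitor concentration.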

Compound	IC50 (full-length human LSD1)	IC50 (THP-1 (AML) cells; Homo sapiens, 96 h)	IC50 (THP-1 (AML) cells)
Cn1nc2ccc(-c3cnc(N4CCC(N)CC4)nc3-c3ccc(C#N)c(F)c3)cc2c1N [Example 95, 4-[5-(3-amino-2-methylindazol-5-yl)-2-(4-aminopiperidin-1-yl)pyrimidin-4-yl]-2-fluorobenzonitrile]	< 100 nM	< 100 nM	–
COc1ccc(-c2nc3ccn(CC4CCNC4)c3cc2-c2ccc(C#N)c(F)c2)cc1F (stereo in doubt) [Example 55, 4-{1-[((3R)pyrrolidin-3-yl)methyl]-5-(3-fluoro-4-methoxyphenyl)pyrrolo[3,2-b]pyridin-6-yl}-2-fluorobenzenecarbonitrile, HCl salt]	< 100 nM	< 100 nM	–
Cn1nnc2cc(-c3cnc(N4CCC(N)CC4)nc3-c3ccc(C#N)c(F)c3)cnc21 [Example 139, 4-[2-(4-aminopiperidin-1-yl)-5-(3-methyltriazolo[4,5-b]pyridin-6-yl)pyrimidin-4-yl]-2-fluorobenzonitrile]	< 100 nM	< 100 nM	–
Cn1ncc2cc(-c3cnc(N4CCC(N)C(O)C4)nc3-c3ccc(C#N)c(F)c3)ccc21 (centres unmarked) [Example 104, 4-[2-(4-amino-3-hydroxypiperidin-1-yl)-5-(1-methylindazol-5-yl)pyrimidin-4-yl]-2-fluorobenzonitrile]	< 100 nM	–	< 100 nM
Cc1nc2cc(-c3cnc(N4CCC(N)CC4)nc3-c3ccc(C#N)c(F)c3)ccc2n1C [Example 138, 4-[2-(4-aminopiperidin-1-yl)-5-(1,2-dimethylbenzimidazol-5-yl)pyrimidin-4-yl]-2-fluorobenzonitrile]	< 100 nM	< 100 nM	–
Cn1ccc(C#Cc2cnc(N3CCC(N)CC3)nc2-c2ccc(C#N)c(F)c2)n1 [Example 99, 4-[2-(4-aminopiperidin-1-yl)-5-[2-(1-methylpyrazol-3-yl)ethynyl]pyrimidin-4-yl]-2-fluorobenzonitrile]	< 100 nM	< 100 nM	–
Cn1cc(C#Cc2cnc(N3CCC(N)CC3)nc2-c2ccc(C#N)c(F)c2)cn1 [Example 102, 4-[2-(4-aminopiperidin-1-yl)-5-[2-(1-methylpyrazol-4-yl)ethynyl]pyrimidin-4-yl]-2-fluorobenzonitrile]	< 100 nM	< 100 nM	–
Cc1ccc(-c2nc3cnn(C[C@H]4[C@@H]5CNC[C@@H]54)c3cc2-c2ccc(C#N)cc2)cc1 [Example 15, 4-[1-[[(1S,5R)-3-azabicyclo[3.1.0]hexan-6-yl]methyl]-5-(4-methylphenyl)pyrazolo[4,3-b]pyridin-6-yl]benzonitrile]	< 100 nM	< 100 nM	–
Cn1ncc2cc(-c3cnc(N4CCC(N)C(O)C4)nc3-c3ccc(C#N)c(F)c3)ccc21 (centres unmarked) [Example 101, 4-[2-(4-amino-3-hydroxypiperidin-1-yl)-5-(1-methylindazol-5-yl)pyrimidin-4-yl]-2-fluorobenzonitrile]	< 100 nM	< 100 nM	–
N#Cc1ccc(-c2cc3c(ccn3C[C@@H]3CCNC3)nc2N2CCOCC2)cc1 [Example 6, 4-[5-morpholin-4-yl-1-[[(3R)-pyrrolidin-3-yl]methyl]pyrrolo[3,2-b]pyridin-6-yl]benzonitrile]	100 to 1000 nM	1000 to 10000 nM	–
N#Cc1ccc(-n2nc(C(=O)N3CCC[C@@H](N)C3)cc2OCc2ccncc2)cc1 [Example 58, 4-{3-[((3R)-3-aminopiperidyl)carbonyl]-5-(4-pyridylmethoxy)pyrazolyl}benzenecarbonitrile]	< 100 nM	1000 to 10000 nM	–
Cc1ccc(-c2cc(NC[C@H]3CCNC3)nn2-c2ccc(C#N)cc2)cc1 [Example 44, 4-[5-(4-methylphenyl)-3-[[(3S)-pyrrolidin-3-yl]methylamino]pyrazol-1-yl]benzonitrile]	< 100 nM	100 to 1000 nM	–
N#Cc1ccc(-c2nc(N3CCC(N)CC3)ncc2-c2cnn(CC(F)(F)F)c2)cc1F [Example 80, 4-[2-(4-aminopiperidin-1-yl)-5-[1-(2,2,2-trifluoroethyl)pyrazol-4-yl]pyrimidin-4-yl]-2-fluorobenzonitrile]	< 100 nM	< 100 nM	–

The next lines start with the values.

IC50 (full-length human LSD1)	IC50 (THP-1 (AML) cells; Homo sapiens, 96 h)	IC50 (THP-1 (AML) cells)	Compound
< 100 nM	< 100 nM	–	CNc1nc(N2CCCNCC2)nc(-c2ccc(C#N)cc2)c1-c1ccc2nn(C)cc2c1 [Example 172, 4-[2-(1,4-diazepan-1-yl)-5-(2-methyl-2H-indazol-5-yl)-6-(methylamino)pyrimidin-4-yl]benzonitrile]
< 100 nM	100 to 1000 nM	–	Cc1ccc(-c2cnc(N3CC4CNCC(C4)C3)nc2-c2ccc(C#N)cc2)cc1 [Example 119, 4-[2-(3,7-diazabicyclo[3.3.1]nonan-3-yl)-5-(4-methylphenyl)pyrimidin-4-yl]benzonitrile]
< 100 nM	< 100 nM	–	Cn1cc2cc(-c3cnc(N4CCC(N)CC4)nc3-c3ccc(C#N)cc3)ccc2n1 [Example 128, 4-[2-(4-aminopiperidin-1-yl)-5-(2-methylindazol-5-yl)pyrimidin-4-yl]benzonitrile]
< 100 nM	< 100 nM	–	COc1ccc(-c2cnc(N3CCC(N)CC3)nc2-c2ccc(C#N)cc2)cc1F [Example 84, 4-[2-(4-aminopiperidin-1-yl)-5-(3-fluoro-4-methoxyphenyl)pyrimidin-4-yl]benzonitrile]
< 100 nM	< 100 nM	–	COc1nc(N2CCC(N)CC2)nc(-c2ccc(C#N)cc2)c1-c1ccc2c(c1)nnn2C [Example 154, 4-[2-(4-aminopiperidin-1-yl)-6-methoxy-5-(1-methyl-1H-1,2,3-benzotriazol-5-yl)pyrimidin-4-yl]benzonitrile]
< 100 nM	< 100 nM	–	Cn1cc2cc(-c3cnc(N4CCC(N)CC4)nc3-c3ccc(C#N)c(F)c3)ccc2n1 [Example 59, 4-[2-(4-aminopiperidin-1-yl)-5-(2-methylindazol-5-yl)pyrimidin-4-yl]-2-fluorobenzonitrile]
< 100 nM	< 100 nM	–	CNc1nc(N2CCC(N)CC2)nc(-c2ccc(C#N)cc2)c1-c1ccc2nn(C)cc2c1 [Example 163, 4-[2-(4-aminopiperidin-1-yl)-5-(2-methyl-2H-indazol-5-yl)-6-(methylamino)-pyrimidin-4-yl]-benzonitrile]
< 100 nM	< 100 nM	–	Cn1cc2cc(-c3cnc(N4CCC(N)C4)nc3-c3ccc(C#N)c(F)c3)ccc2n1 (centres unmarked) [Example 143, 4-[2-(3-aminopyrrolidin-1-yl)-5-(2-methylindazol-5-yl)pyrimidin-4-yl]-2-fluorobenzonitrile]
< 100 nM	< 100 nM	–	CNc1nc(N2CCC(N)CC2)nc(-c2ccc(C#N)c(F)c2)c1-c1cnn(CC(F)(F)F)c1 [Example 167, 4-[2-(4-aminopiperidin-1-yl)-6-(methylamino)-5-[1-(2,2,2-trifluoroethyl)-1H-pyrazol-4-yl]pyrimidin-4-yl]-2-fluorobenzonitrile]
< 100 nM	< 100 nM	–	Cc1ccc(-c2nc3cnn(CC4CCNC4)c3cc2-c2ccc(C#N)cc2)cc1 (centres unmarked) [Example 13]
< 100 nM	< 100 nM	–	COc1nc(N2CCC(N)CC2)nc(-c2ccc(C#N)c(F)c2)c1-c1ccc2cn(C)nc2c1 [Example 150, 4-[2-(4-aminopiperidin-1-yl)-6-methoxy-5-(2-methyl-2H-indazol-6-yl)pyrimidin-4-yl]-2-fluorobenzonitrile]
< 100 nM	< 100 nM	–	Cn1cc2cc(-c3cnc(N4CCCC(N)C4)nc3-c3ccc(C#N)c(F)c3)ccc2n1 (centres unmarked) [Example 108, 4-[2-(3-aminopiperidin-1-yl)-5-(2-methylindazol-5-yl)pyrimidin-4-yl]-2-fluorobenzonitrile]
< 100 nM	< 100 nM	–	CNc1nc(N2CCC(N)CC2)nc(-c2ccc(C#N)c(F)c2)c1-c1ccc2nn(C)cc2c1 [Example 160, 4-[2-(4-aminopiperidin-1-yl)-5-(2-methyl-2H-indazol-5-yl)-6-(methylamino)-pyrimidin-4-yl]-2-fluorobenzonitrile]
< 100 nM	< 100 nM	–	COc1nc(N2CCC(N)CC2)nc(-c2ccc(C#N)cc2)c1-c1cnn(CC(F)(F)F)c1 [Example 153, 4-[2-(4-aminopiperidin-1-yl)-6-methoxy-5-[1-(2,2,2-trifluoroethyl)-1H-pyrazol-4-yl]pyrimidin-4-yl]benzonitrile]
< 100 nM	100 to 1000 nM	–	N#Cc1ccc(-c2nc(N3CCC(N)CC3)ncc2-c2cnn(CC3CCOC3)c2)cc1 (centres unmarked) [Example 78, 4-[2-(4-aminopiperidin-1-yl)-5-[1-(oxolan-3-ylmethyl)pyrazol-4-yl]pyrimidin-4-yl]benzonitrile]
< 100 nM	< 100 nM	–	CNc1nc(N2CCC(N)CC2)nc(-c2ccc(C#N)c(F)c2)c1-c1cnc(N(C)C)nc1 [Example 168, 4-[2-(4-aminopiperidin-1-yl)-5-[2-(dimethylamino)pyrimidin-5-yl]-6-(methylamino)pyrimidin-4-yl]-2-fluorobenzonitrile]
< 100 nM	< 100 nM	–	COc1nc(N2CCC(N)CC2)nc(-c2ccc(C#N)cc2)c1-c1ccc(N(C)C)nc1 [Example 155, 4-[2-(4-aminopiperidin-1-yl)-5-[6-(dimethylamino)pyridin-3-yl]-6-methoxypyrimidin-4-yl]benzonitrile]
< 100 nM	100 to 1000 nM	–	N#Cc1ccc(-c2nc(N3CCC(N)CC3)ncc2-c2ccc3nc[nH]c3c2)cc1 [Example 91, 4-[2-(4-aminopiperidin-1-yl)-5-(3H-benzimidazol-5-yl)pyrimidin-4-yl]benzonitrile]

Source: patent US10131664B2 (Celgene Quanticel Research, Inc., priority 2013, dated 2018)
